Data on eight compounds can be found in patent US20180193294A1, “Dehydroabietic acid (DHAA) derivatives for use as ion channel openers” (priority 2015, published 2018).

“Also recorded” adds a separate entry of the source.

For test [1], the target named is 3R Shaker K channel (Drosophila melanogaster, UniProt P08510, A359R/M356R). Briefly: physchem. Format: cell-based. Conditions: for compound-induced G(V) shift (mean±SEM) / G(V) shift: pH 7.4, Xenopus oocytes; for G(V) shift: Table 1; for Effects on K channel Mean ± SEM: Table 2, K channel expressed in Xenopus oocytes; for relative current amplitude: representative traces at voltage giving 10% of maximum conductance in control; for ΔG(V) of representative G(V) curves (single examples): pH 7.4, same cells as representative traces. The method, boiled down: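 Two-electrode voltage clamp at 20-23° C. in oocytes (also CHO-K1 stable line, manual patch clamp) expressing Shaker H4 lacking N-type inactivation; 1K extracellular solution, pH 7.4, holding −80 mV, 100-ms 5-mV steps up to +70 mV. Compound-induced G(V) shift taken at 10% of control Gmax (oocytes) or as V1/2 difference (CHO-K1).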
3R Shaker K channel, sequence (P08510 whole entry M356R/A359R): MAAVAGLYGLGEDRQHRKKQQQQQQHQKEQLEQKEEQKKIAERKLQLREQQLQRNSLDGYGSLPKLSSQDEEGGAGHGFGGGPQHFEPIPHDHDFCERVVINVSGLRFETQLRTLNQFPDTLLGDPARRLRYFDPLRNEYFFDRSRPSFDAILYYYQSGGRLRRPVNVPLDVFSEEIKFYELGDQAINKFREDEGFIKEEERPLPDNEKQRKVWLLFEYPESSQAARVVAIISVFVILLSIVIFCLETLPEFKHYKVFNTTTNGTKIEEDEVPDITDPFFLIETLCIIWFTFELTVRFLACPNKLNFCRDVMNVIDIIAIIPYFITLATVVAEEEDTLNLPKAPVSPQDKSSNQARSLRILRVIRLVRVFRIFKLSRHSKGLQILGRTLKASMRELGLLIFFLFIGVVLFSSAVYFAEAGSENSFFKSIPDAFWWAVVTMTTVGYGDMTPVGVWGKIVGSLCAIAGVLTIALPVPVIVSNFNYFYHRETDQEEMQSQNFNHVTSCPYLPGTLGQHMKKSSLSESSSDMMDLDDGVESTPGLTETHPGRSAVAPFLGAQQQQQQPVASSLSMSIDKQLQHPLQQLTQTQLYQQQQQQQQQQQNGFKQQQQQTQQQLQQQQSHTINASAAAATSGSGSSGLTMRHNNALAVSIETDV

For test [2], the system named is HL-1 cells. Briefly: Membrane potential and firing of spontaneously beating HL-1 cells, whole-cell current clamp. Conditions: 10 uM. Format: cell-based. As for the experimental part:
All conventional chemicals were purchased from Sigma-Aldrich (Stockholm, Sweden). The DHAA derivatives were diluted in ethanol in a 100 mM stock solution. The stock solutions were stored at −20 t for further use.
The cell culture was done according to a previous study (Claycomb et al., Proceedings of the National Academy of Sciences of the United States of America 1998; 95:2979-2984). In brief, cells were grown on gelating fibronectin coated T75 flasks. They were maintained in Claycomb Medium which was supplemented with 10% fetal bovine serum, 2 mM L-glutamine, 0.1 mM noradrenaline, and 100 U/ml, 100 μg/ml penicillin-streptomycin. Enzymatic dissociation with 0.05% trypsin-EDTA was done after full confluence. Isolated cells were plated on fibronectin-gelatin coated plastic coverslips and used for recording.
Whole-cell current-clamp recordings were done on confluent cells at 35±1° C., using an Axopatch 200B amplifier (Molecular Devices, Sunnyvale, Calif.). Patch pipettes were fabricated from borosilicate capillary glass on a vertical pipette puller and had resistances of 3-5 MO. Data were stored on a computer through Digidata 1440A interface (Molecular Devices), and was analyzed with pCLAMP software (version 10.1, Molecular Devices). The bath solution contained the following (in mM): 140 NaCl, 5.4 KCl, 1 MgCl2, 1.8 CaCl2, 10 HEPES, and 10 glucose (pH adjusted to 7.4 with NaOH). The micropipettes were filled with a solution containing (in mM): 130 K-gluconate, 9 KCl, 8 NaCl, 1 MgCl2, 10 EGTA, 10 HEPES, and 3 Na2ATP (pH adjusted to 7.3 with KOH).

The target of test [3] is WT Shaker K channel (Drosophila melanogaster, UniProt P08510, DEL6-46). Briefly: physchem. Conditions: 100 μM, pH 7.4, Xenopus oocytes. Format: cell-based. The text has this: A Shaker K channel is a Kv channel from the fruit fly Drosophila melanogaster. It is homologous to the human Kv1-type ion channels.
WT Shaker K channel, sequence (P08510 other isoform, or with tags, fused parts or gaps DEL6-46): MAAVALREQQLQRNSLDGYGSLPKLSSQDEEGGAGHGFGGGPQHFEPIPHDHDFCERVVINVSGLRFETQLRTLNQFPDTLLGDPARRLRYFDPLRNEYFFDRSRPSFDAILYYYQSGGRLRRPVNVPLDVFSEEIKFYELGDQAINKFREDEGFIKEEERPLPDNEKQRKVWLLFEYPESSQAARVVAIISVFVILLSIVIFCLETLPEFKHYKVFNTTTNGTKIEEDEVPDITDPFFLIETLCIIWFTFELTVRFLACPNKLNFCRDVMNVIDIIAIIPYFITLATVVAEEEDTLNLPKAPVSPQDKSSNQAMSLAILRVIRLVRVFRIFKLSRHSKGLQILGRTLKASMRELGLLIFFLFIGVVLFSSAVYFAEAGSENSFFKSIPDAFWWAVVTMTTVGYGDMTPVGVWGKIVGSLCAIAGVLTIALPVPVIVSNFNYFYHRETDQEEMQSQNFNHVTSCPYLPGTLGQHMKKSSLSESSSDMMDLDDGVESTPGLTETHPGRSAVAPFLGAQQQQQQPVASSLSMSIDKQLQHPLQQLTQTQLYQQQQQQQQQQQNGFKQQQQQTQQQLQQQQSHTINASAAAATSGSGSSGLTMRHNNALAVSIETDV
All animal experiments were approved by the local Animal Care and Use Committee and followed international guidelines. A modified Shaker H4 channel^30, with removed N-type inactivation (ShH4IR)^31, here called the wild type (WT) channel, was expressed in oocytes. In addition, a modified 3R Shaker K channel where two introduced positive charged arginines (M356R and A359R) in addition to one native arginine (R362) makes the channel more sensitive to DHA^16, was expressed in oocytes and in a CHO—K1 stable cell line.
African clawed frogs (Xenopus laevis) were anesthetized with 1.4 g/L ethyl 3-aminobenzoate methanesulfonate salt (tricaine). After an incision through the abdomen a batch of oocytes were removed. Clusters of oocytes were separated by incubation for ˜1 h in a Ca-free O—R2 solution (in mM: 82.5 NaCl, 2 KCl, 5 HEPES, and 1 MgCl2; pH adjusted to 7.4 by NaOH) containing Liberase Blendzyme. The oocytes were then incubated at 8° C. in a modified Barth's solution (MBS; in mM: 88 NaCl, 1 KCl, 2.4 NaHCO3, 15 HEPES, 0.33 Ca(NO3)2, 0.41 CaCl2, and 0.82 MgSO4; pH adjusted to 7.6 by NaOH) supplemented with penicillin (25 U/ml), streptomycin (25 μg/ml), and sodium pyruvate (2.5 mM) 2-24 hours before injection. Fifty nl of cRNA (50 pg) were injected into each oocyte using a Nanoject injector (Drummond Scientific, Broomall, Pa.). Injected oocytes were kept at 8° C. in MBS until one day before electrophysiological recordings, when they were incubated at 16° C. All chemicals were supplied from Sigma-Aldrich (Stockholm, Sweden) if not stated otherwise.
(§1) All manual electrophysiological recordings were performed at room temperature (20-23° C.), using a GeneClamp 500B amplifier (for oocytes) or a Axopatch 200B amplifier (for manual patch clamp of CHO—K1 cells and DRG neurons) and a Digidata 1440A digitizer and pClamp 10 software (all from Molecular Devices, Inc., Sunnyvale, Calif., USA). Compounds were dissolved to 100 mM in 99.5% EtOH and stored at −20° C. Compounds were diluted in extracellular solution to the desired test concentration.
The oocyte was placed in a bath surrounded by 1K extracellular solution that contained (in mM): 88 NaCl, 1 KCl, 15 HEPES, 0.4 CaCl2, and 0.8 MgCl2, pH adjusted to 7.4 by NaOH (reaching a sodium concentration of ˜100 mM). Control solution was added to the bath with a gravity driven perfusion system. Compound solution was added to the bath manually with a syringe. Two glass microelectrodes were inserted into the oocyte using micromanipulators. […] All channels were closed when the potential was clamped to −80 mV and this voltage was set as the holding potential. Currents were evoked from the holding potential of −80 mV by 100-ms long, 5-mV steps ranging from −80 up to +50 mV (WT) and +70 mV (3R).
Conductance GK(V) was calculated as GK(V)=[…], (Eq. 1) where IK is the average current from the steady-state phase at the end of each 100-ms pulse, V is the membrane voltage, and Vrev is the reversal potential for K^+, (set to −80 mV for the oocytes, and calculated to be −89 mV for the CHO—K1 cells).
G(V)=A/(1+exp((V1/2−V)/s))^n (Eq. 2) where A is amplitude of the curve, V is the absolute membrane voltage, V1/2 is the midpoint, s is the slope and n is an exponent set to 4^17. The compound-induced G(V) shift was determined at the 10% level of the maximum conductance in control solution^17. The compound-induced G(V) shift in CHO—K1 was quantified by subtracting the control V1/2 from the compound V1/2 when n was set to 1.
Data for concentration and pH dependent G(V) shifts (ΔV) in oocytes were fit with a dose-response equation ΔV=ΔVmax/(1+c1/2/c), (Eq. 3) where Δvmax is the maximal shift, c1/2 is half maximal effective concentration/pKa value and c is the concentration.

The test system of test [4] is dorsal root ganglion (DRG) neurons. Briefly: Resting membrane potential of DRG neurons, whole-cell current clamp. It is filed as cell-based, mice. Conditions: 10 μM, pH 7.4, 120 s application. As for the experimental part: All animal experiments were approved by the local Animal Care and Use Committee and followed international guidelines. Five female 7-12 week-old C57BL/6 mice (Scanbur) were used for this study. The mice were anaesthetized with isoflurane and decapitated. Dorsal root ganglia (DRG) were dissected from all spinal levels and enzymatically digested with collagenase (250 CDU/ml) for 15 min, and then trypsin (1 mg/ml) was added for another 30 min. The ganglia were centrifuged and resuspended in Leibovitz L-15 media with glutamine, supplemented with 10% fetal calf serum, 38 mM glucose, 24 mM NaHCO3 and penicillin/streptomycin. The ganglia were triturated and the DRG neurons plated on poly-D-lysine coated plastic coverslips. The neurons were cultured at 37° C. with 5% CO2 for 2-3 days before the electrophysiological recordings.
as §1
CHO—K1 Cells were plated on coverslips 2 h before the manual electrophysiological recordings. Coverslips with CHO—K1 cells or DRG neurons were placed in a recording chamber and perfused with extracellular solution by a gravity-fed perfusion system. Substances were applied by a pressurized, automated OctaFlow perfusion system (ALA Scientific Instruments). The signals were sampled at 5-20 kHz after low-pass filtering at 2-5 kHz. For CHO—K1 cells the intracellular solution contained (in mM): 120 K-gluconate, 10 KCl, 5 EGTA, 10 HEPES, 4 Mg-ATP, 0.3 Na-GTP, pH 7.3; the extracellular solution contained (in mM): 135 NaCl, 4 KCl, 10 HEPES, 1 MgCl2, 1.8 CaCl2, 10 glucose, pH 7.4. Currents were evoked in CHO—K1 cells in whole-cell voltage-clamp mode from a holding potential of −80 mV by 100-ms long, 10-mV steps ranging from −80 to +80 mV.
For DRG neurons the intracellular solution contained (in mM): 120 K-gluconate, 10 KCl, 1 EGTA, 10 HEPES, 4 Mg-ATP, 0.3 Na-GTP, pH 7.3; the extracellular solution contained (in mM): 144 NaCl, 2.5 KCl, 10 HEPES, 0.5 MgCl2, 2 CaCl2, 10 glucose, pH 7.4. A liquid-junction potential of approximately −14 mV was corrected for. […] Small and medium sized DRG neurons were selected for whole-cell current-clamp recording. 10 μM of the compounds were applied for 120 s to study the effect on the resting membrane potential, and for 45-120 s to study the effects on evoked action potentials. To evoke action potentials 800-ms depolarizing pulses
The compound effect on the resting membrane potential Vm was determined by subtracting the control pre-compound Vm from the Vm at the end of the 120 s application of test compound.

With `C=CCO/N=C1\CC2[C@](C)(C(=O)O)CCC[C@]2(C)c2ccc(C(C)C)cc21` (stereo partly shown) [Compound K8], in test [1] (100 μM), the “compound-induced G(V) shift (mean±SEM)” value is −17.8±1.9 mV and the “G(V) shift” value is −17.8 mV. Moreover, the “effect on G(V) shift / current compared with DHAA” value in test [1] (C7-modified DHAA, 100 μM, pH 7.4) is on record as “significantly increased the effect”. For the same compound, the “Effects on K channel Mean ± SEM” value in test [1] is recorded as −17.8 ± 1.9 mV. The compound also had a relative current amplitude in test [1] (100 μM, pH 7.4) of 7.6 times. Further, the “Effects on HL-1 cells Mean (membrane potential)” value (from here on “Effects on HL-1 cells Mean”) in test [2] is given as −3.6 mV.

As to `C=C[C@@]1(C)C=C2CC[C@@H]3[C@](C)(CCC[C@@]3(C)C(=O)O)[C@H]2CC1` [PiMA, pimaric acid, reference compound], the “G(V) shift for WT” value in test [3] is reported as “much smaller effects on WT compared to the 3R Shaker K channel”. In test [1] (100 μM), the “compound-induced G(V) shift (mean±SEM)” value was −10.4±0.8 mV and the “ΔG(V) of representative G(V) curves (single examples)” value is reported as −10.8 mV. This compound displayed a relative current amplitude in test [1] (100 μM, pH 7.4) of 2.4 times.

As for `C[C@]1(C(=O)O)CCC[C@]2(C)c3cc(O)ccc3CC[C@@H]12` [PoCA, podocarpic acid, reference compound], the “G(V) shift for WT” value in test [3] is “not significantly different from the 3R Shaker K channel”. For the same compound, the “ΔG(V) of representative G(V) curves (single examples)” value in test [1] (100 μM) is recorded as “+0.1 mV”. In addition, the relative current amplitude in test [1] (100 μM, pH 7.4) was found to be 1.0 times.

Regarding `CC(C)c1cc2c(cc1Cl)[C@@]1(C)CCC[C@@](C)(C(=O)O)C1CC2` (stereo partly drawn) [Wu13, (1R,4aS)-6-chloro-7-isopropyl-1,4a-dimethyl-1,2,3,4,4a,9,10,10a-octahydrophenanthrene-1-carboxylic acid], the “G(V) shift” value in test [1] (100 μM) is listed as −15.8 mV. Moreover, in test [4], the “shift of the resting membrane potential (ΔVm)” value (“shift … (ΔVm)” for short) is “most potent compounds on the DRG neurons”.

Turning to `C=CCO/N=C1\CC2[C@](C)(C(=O)O)CCC[C@]2(C)c2cc(Cl)c(C(C)C)cc21` (stereo partly drawn) [Wu23, (1R,4aS,E)-9-((allyloxy)imino)-6-chloro-7-isopropyl-1,4a-dimethyl-1,2,3,4,4a,9,10,10a-octahydrophenanthrene-1-carboxylic acid], the “G(V) shift” value in test [1] (100 μM) is recorded as −26.7 mV. Also, the “shift … (ΔVm)” value in test [4] is recorded as “intermediately potent hyperpolarizers”.

Regarding `CC(C)c1ccc2c(c1Br)CCC1[C@](C)(C(=O)O)CCC[C@]21C` (stereo partly drawn) [Wu26, (1R,4aS)-8-bromo-7-isopropyl-1,4a-dimethyl-1,2,3,4,4a,9,10,10a-octahydrophenanthrene-1-carboxylic acid], the “G(V) shift” value in test [1] (100 μM) is −21.8 mV. Moreover, in test [1], the “Effects on K channel Mean ± SEM” value is given as −21.8 ± 0.8 mV. For the same compound, in test [2], the “Effects on HL-1 cells Mean” value is on record as −4.7 mV.

Take `CO/N=C1\CC2[C@](C)(C(=O)O)CCC[C@]2(C)c2cc(Cl)c(C(C)C)cc21` (stereo partly drawn) [Wu69, (1R,4aS,E)-6-chloro-7-isopropyl-9-methoxyimino-1,4a-dimethyl-1,2,3,4,4a,9,10,10a-octahydrophenanthrene-1-carboxylic acid]: in test [1] (100 μM), the “compound-induced G(V) shift (mean±SEM)” value was “one of the most potent substances on the Shaker K 3R channel” and the “G(V) shift” value is reported as −28.1 mV. In addition, the “Effects on K channel Mean ± SEM” value in test [1] is −28.1 ± 1.7 mV. In test [2], the “Effects on HL-1 cells Mean” value is listed as −9.3 mV, the “effect on firing frequency of HL-1 cells” value was “reduced the frequency; also recorded: frequency is reduced” and the “effect on membrane potential of HL-1 cells” value is recorded as “hyperpolarized the membrane potential; also recorded: interspike membrane potential is made more negative; also recorded: most potent substance on the HL-1 cells”.

As to `CO/N=C1\CC2[C@](C)(C(=O)O)CCC[C@]2(C)c2ccc(C(C)C)c(Br)c21` (stereo partly drawn) [Wu74, (1R,4aS,E)-8-bromo-7-isopropyl-9-(methoxyimino)-1,4a-dimethyl-1,2,3,4,4a,9,10,10a-octahydrophenanthrene-1-carboxylic acid], the “G(V) shift” value in test [1] (100 μM) was −14.7 mV. In test [4], the “shift … (ΔVm)” value is on record as “intermediately potent hyperpolarizers”.
